Test results taken from PMC8160210, “Single tryptophan Y160W mutant of homooligomeric E. coli purine nucleoside phosphorylase implies that dimers forming the hexamer are functionally not equivalent” (Scientific Reports, 2021).
Where two headings read alike, the source gives them in different places.

Columns and labels:
WT E. coli PNP = target: T1, WT E. coli PNP (Escherichia coli, UniProt P0ABP8); experiment: Inhibition of m^7Guo phosphorolysis; format: biochemical; settings: competitive inhibition Eq. (3), m^7Guo as variable substrate, 50 mM phosphate, pH 7.0, 25 °C
T1 construct: made in house
T1 sequence (P0ABP8 2-239 limits assumed): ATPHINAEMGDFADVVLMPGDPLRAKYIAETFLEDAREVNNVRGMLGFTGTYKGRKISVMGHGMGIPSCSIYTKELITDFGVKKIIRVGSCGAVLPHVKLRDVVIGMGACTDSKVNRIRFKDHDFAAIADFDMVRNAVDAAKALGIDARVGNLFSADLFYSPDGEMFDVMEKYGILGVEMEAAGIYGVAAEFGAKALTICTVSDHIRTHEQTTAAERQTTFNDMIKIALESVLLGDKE
Experimental: All activity measurements and kinetic studies were done in 50 mM Hepes/HCl buffer pH 7.0 at 25 °C as previously described for the WT E. coli PNP and its active-site mutants, using direct spectrophotometric assay for adenosine, guanosine and 7-methylguanosine as substrates, and a coupled assay with xanthine oxidase in the case of inosine[13],[28],[29]. Activity measurements were performed for each protein sample, before and after each experiment as a control of the state of the protein.
To determine inhibition model and inhibition constant for formycin A, rate of phosphorolysis with m^7Guo as a variable substrate, at constant, 50 mM, phosphate concentration, was registered in the absence of the inhibitor and in the presence of two different concentrations of formycin. A global fitting to the whole data set was performed, using various models (competitive, uncompetitive, noncompetitive, mixed). As expected for the substrate analogue, competitive model described the data sufficiently well:3 v0c0=Vmax1c0/c0+KM1+ci/Ki where ci is inhibitor concentration. Kinetic data were analysed using the GraphPad Prism program (Intuitive Software for Science, San Diego, CA, USA).

WT PNP/Pi complex = target: T2, WT PNP/Pi complex (Escherichia coli, UniProt P0ABP8); experiment: Thermophoretic (MST) titrations with formycin A; parameters: species or system E. coli; settings: two-binding-site model, 50 mM phosphate, pH 7.6, 25 °C
T2 construct: made in house
Experimental: (§1) Measurements were performed with Monolith NT115 (NanoTemper). Enzyme was labelled with NT647 fluorescent dye (NanoTemper) according to the protocol provided by the manufacturer. Labelled proteins show fluorescence excitation and emission maxima of approximately 650 and 670 nm, respectively. The series of titrations were performed at a constant protein concentration. Both proteins (WT and mutant), and ligands were dissolved in 50 mM Tris/HCl pH 7.6 buffer, measurements were performed at 25 °C. […] In the pre-experiments, it was carefully checked for both proteins, WT and Y160W mutant whether any sign of aggregation or inactivation occurs, and if mutant behaviour is similar to that of the WT enzyme. An example of the raw thermophoretic curves obtained with the relative heating laser power at 60% and 80% are shown in the Supplementary Information (Figure S7).
(§2) Experiments of the nucleoside analogue binding were performed in the presence of saturating concentration of phosphate, i.e. 50 mM. For both, WT PNP and Y160W mutant seven repetitions of each curve were measured, for a single power of the heating laser. The power of the heating laser at which the strongest change of the thermophoretic signal upon ligand binding occurs was selected, namely 80% for both enzyme variants. The raw MST traces, for two highest tested laser powers, 60% and 80%, are presented in the Supplementary information (Figure S7) Protein concentration in the capillary was constant and equal to 0.215 μM and 0.0751 μM for the WT protein and the Y160W mutant, respectively. Series of titrations were analysed globally using the DynaFit4 program[40] (see below).
(§3) Three models were taken into account in analysis of binding curves: model with one (first equation below), two (first two equations) and three binding sites. P+L⇔PLwithKd1PL+L⇔PLLwithKd2PLL+L⇔PLLLwithKd3
(§4) The model with one binding site is based on the assumption that all monomers are equivalent, and there is no cooperation between them. In the model with two binding sites the basic functional unit of the protein is a dimer, possible non-equivalence of binding sites or cooperativity between active sites in the dimer are taken into account (in the case of no cooperativity dissociation constants should be related statistically: Kd2 = 4Kd1), the dimers within hexamer are equivalent. The model with three binding sites is based on the crystallographic structures of binary and ternary complexes of PNP with ligands, where two of the dimers are in the “open-closed” conformation, but the third dimer is symmetrical, in the “open-open” conformation. Thus, active sites in the open conformation belonging to “open-closed” and “open-open” dimer may not be equivalent. […]
(§5) Titration series were analysed globally, always starting from the simplest, one-binding-site model. […] For all tested models the Akaike information criterion[23] was also calculated. […] Analysed models were fitted to the raw data, whereas graphs presented in this study were prepared from the normalised data and the fitted curves. […] Responses are defined as changes in a measured physical quantity related to the formation of subsequent protein–ligand complexes: intrinsic protein fluorescence intensity, fluorescence intensity of the dye, heat and ellipticity for fluorimetric, thermophoretic, calorimetric and CD titrations, respectively. […]

Y160W mutant/Pi complex = target: T3, Y160W mutant/Pi complex (Escherichia coli, UniProt P0ABP8, Y161W); experiment: Thermophoretic (MST) titrations with formycin A; parameters: species or system E. coli
T3 construct: made in house; host or cells: E. coli DH5α-T1
T3 sequence (P0ABP8 2-239 Y161W, one chain of several): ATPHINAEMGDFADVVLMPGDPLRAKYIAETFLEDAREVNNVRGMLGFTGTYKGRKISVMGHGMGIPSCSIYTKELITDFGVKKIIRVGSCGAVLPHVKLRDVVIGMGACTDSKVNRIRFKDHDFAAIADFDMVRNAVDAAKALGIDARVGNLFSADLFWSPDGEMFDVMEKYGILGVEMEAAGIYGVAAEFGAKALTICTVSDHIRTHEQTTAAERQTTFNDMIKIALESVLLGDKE
Experimental: as §1, §2, §3, §4, §5

Work on `Nc1ncnc2c([C@@H]3O[C@H](CO)[C@@H](O)[C@H]3O)[nH]nc12` [FA, Formycin A] yielded a Ki (WT E. coli PNP) of 5.3 ± 0.4 µM, a Kd (WT PNP/Pi complex; Kd1 ± SD) of 0.0107 µM and a Kd (WT PNP/Pi complex; Kd3 ± SD) of 186 µM. It also gave a Kd (Y160W mutant/Pi complex; Kd1 ± SD, three-binding-site model, 50 mM phosphate, pH 7.6, 25 °C) of 0.137 µM, a Kd (Y160W mutant/Pi complex; Kd3 ± SD, three-binding-site model, 50 mM phosphate, pH 7.6, 25 °C) of 1750 µM and a Kd (Y160W mutant/Pi complex; read-out: Kd2 ± SD, three-binding-site model, 50 mM phosphate, pH 7.6, 25 °C) of 110 µM.
